One test relates to MCF7. Kind of test: Cytotoxicity against human MCF7 cells assessed as reduction in cell viability by MTT assay. In general terms: Formazan colour is commonly taken as a measure of viable cells.
A further test has as its system PC-3. Description: Cytotoxicity against human PC3 cells assessed as reduction in cell viability by MTT assay.
The next test relates to SMMC-7721. Description: Cytotoxicity against human SMMC7721 cells assessed as reduction in cell viability by MTT assay.

`CC12CCC3C1C(c1c(CCc4ccccc4)cc(O)cc1O2)C3(C)C` (centres undefined): the IC50 in the test with MCF7 turned out to be 14 µM; in the test on PC-3, 19.6 µM; in the test with SMMC-7721, 14.5 µM.
`C=C(C)C1CCC2(C)Oc3cc(O)cc(CCc4ccccc4)c3C1C2O` (racemic): the values for the half-maximal inhibitory concentration (IC50) in the test on MCF7, in the test with PC-3 and with SMMC-7721 were 38.2 µM, above 40 µM and above 40 µM, respectively.
Consider `CC12CCc3cc(CCc4ccccc4)cc(O)c3C1C2` (racemic), for which the concentration for half-maximal inhibition (IC50) with MCF7 was 24.7 µM; in the test with PC-3, above 40 µM; with SMMC-7721, 34.2 µM.

What is called IC50 is the concentration needed to halve the response being measured.

The values are drawn from ChEMBL document CHEMBL4130580, “Bibenzyl-Based Meroterpenoid Enantiomers from the Chinese Liverwort Radula sumatrana” (J Nat Prod, 2017).
